# Reference: ChEMBL document CHEMBL1201862, “PubChem BioAssay data set” (2004)
# Calls of active or inactive are those of the source.
# Key:
# [1] = NIH3T3 cell viability loss – ATP luminescence, mouse fibroblasts, counter-screen, dose response (AID 2010); format: functional, cell-based;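 also: cells exposed to compound for about 90 hours before reading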
# [2] = alpha-synuclein stem-loop translation blockers – luminescence, H4 neuroglioblastoma cells, dose confirmation, confirmation (AID 2454); format: functional, cell-based;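 also: H4 neuroglioblastoma cells carrying an alpha-synuclein 5'UTR luciferase reporter; potency for inhibition of the luciferase signal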
# [3] = luciferase reporter signal reduction – luminescence, H4-C neuroglioblastoma cells, dose response (AID 2458); format: functional, cell-based;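 also: H4 neuroglioblastoma cells stably carrying a luciferase reporter gene fusion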
# [4] = alpha-synuclein stem-loop luciferase translation blockers – H4 neuroglioma cells, luminescence, confirmation (AID 1988); format: functional, cell-based
# [5] = Luminescence Cell-Based Dose Response HTS to Identify Inhibitors of 5'UTR Stem-Loop Driven Prion Protein mRNA Translation in H4 Neuroglioblastoma Cells. [Related pubchem assays: 1827 (Project Summary), 1813 (Primary HTS)]; format: functional
# cells [6] = format: functional, cell-based
# [7] = luciferase reporter signal suppression in cells – H4 neuroglioma cells, luminescence, dose response (AID 1990); format: functional, cell-based
# [8] = Trypanosoma cruzi growth suppression in host cells – NIH3T3 host cells, beta-gal luminescence, confirmation (AID 2044); format: functional, cell-based;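 also: intracellular parasites grown in NIH/3T3 mouse fibroblasts as host cells; luminescent beta-galactosidase reporter signal from transgenic T. cruzi replicating inside host cells; inhibitors lower the luminescence signal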
# [9] = HEK-293T viability loss after treatment – luminescence, T-cell screen hits, cytotoxicity control for TCR NF-kB inhibitor project, dose response (AID 489026); format: functional, cell-based;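 also: cells exposed to compound about 14 hours before the viability readout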
# [10] = molecular target: Lysosomal acid glucosylceramidase (Homo sapiens, UniProt P04062); assay: Dose response cell-based high throughput screening assay to identify enhancers of beta-glucosidase activity. [Related pubchem assays: 784 ]; format: functional
# Lysosomal acid glucosylceramidase, sequence (P04062 whole entry): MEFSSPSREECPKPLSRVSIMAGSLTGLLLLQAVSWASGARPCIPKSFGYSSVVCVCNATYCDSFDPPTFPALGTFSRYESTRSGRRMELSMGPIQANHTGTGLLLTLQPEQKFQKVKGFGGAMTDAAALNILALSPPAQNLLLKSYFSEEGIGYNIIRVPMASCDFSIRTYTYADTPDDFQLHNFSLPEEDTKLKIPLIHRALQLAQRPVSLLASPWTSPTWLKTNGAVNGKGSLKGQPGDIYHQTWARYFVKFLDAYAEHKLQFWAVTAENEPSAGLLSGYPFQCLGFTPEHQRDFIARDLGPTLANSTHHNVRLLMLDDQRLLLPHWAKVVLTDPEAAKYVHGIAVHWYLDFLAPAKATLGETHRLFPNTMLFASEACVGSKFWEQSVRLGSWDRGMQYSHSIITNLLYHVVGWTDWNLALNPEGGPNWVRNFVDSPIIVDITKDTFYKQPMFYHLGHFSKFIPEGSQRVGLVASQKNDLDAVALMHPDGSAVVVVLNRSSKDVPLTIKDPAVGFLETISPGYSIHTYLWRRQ
# [11] = molecular target: Polyadenylate-binding protein 1 (Homo sapiens, UniProt P11940); assay: PABP inhibition in translation initiation, SAR follow-up (AID 435018); format: functional
# Polyadenylate-binding protein 1, sequence (P11940 whole entry): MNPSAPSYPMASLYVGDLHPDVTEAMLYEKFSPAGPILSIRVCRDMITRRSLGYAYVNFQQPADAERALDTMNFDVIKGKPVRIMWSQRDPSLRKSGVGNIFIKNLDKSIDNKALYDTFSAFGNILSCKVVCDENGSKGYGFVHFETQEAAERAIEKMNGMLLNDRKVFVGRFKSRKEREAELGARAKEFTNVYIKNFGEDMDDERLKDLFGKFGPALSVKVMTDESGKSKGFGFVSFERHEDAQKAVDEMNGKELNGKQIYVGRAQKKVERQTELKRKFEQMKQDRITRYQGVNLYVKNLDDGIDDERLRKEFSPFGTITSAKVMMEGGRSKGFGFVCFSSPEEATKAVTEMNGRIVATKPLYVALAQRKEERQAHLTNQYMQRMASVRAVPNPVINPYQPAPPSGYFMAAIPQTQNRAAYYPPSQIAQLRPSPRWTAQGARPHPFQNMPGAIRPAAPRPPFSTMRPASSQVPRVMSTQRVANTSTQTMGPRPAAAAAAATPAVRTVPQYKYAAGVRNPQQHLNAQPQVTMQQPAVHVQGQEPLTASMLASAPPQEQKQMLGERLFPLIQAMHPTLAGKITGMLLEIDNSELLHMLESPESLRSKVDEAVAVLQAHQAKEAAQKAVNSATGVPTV
# [12] = molecular target: Eukaryotic translation initiation factor 4H (Homo sapiens, UniProt Q15056); assay: inhibitors of translation initiation factor eIF4H – SAR follow-up (AID 435011); format: functional
# [13] = molecular target: T1, Alkaline phosphatase, tissue-nonspecific isozyme (Homo sapiens, UniProt P05186)
# T1 sequence (P05186 whole entry): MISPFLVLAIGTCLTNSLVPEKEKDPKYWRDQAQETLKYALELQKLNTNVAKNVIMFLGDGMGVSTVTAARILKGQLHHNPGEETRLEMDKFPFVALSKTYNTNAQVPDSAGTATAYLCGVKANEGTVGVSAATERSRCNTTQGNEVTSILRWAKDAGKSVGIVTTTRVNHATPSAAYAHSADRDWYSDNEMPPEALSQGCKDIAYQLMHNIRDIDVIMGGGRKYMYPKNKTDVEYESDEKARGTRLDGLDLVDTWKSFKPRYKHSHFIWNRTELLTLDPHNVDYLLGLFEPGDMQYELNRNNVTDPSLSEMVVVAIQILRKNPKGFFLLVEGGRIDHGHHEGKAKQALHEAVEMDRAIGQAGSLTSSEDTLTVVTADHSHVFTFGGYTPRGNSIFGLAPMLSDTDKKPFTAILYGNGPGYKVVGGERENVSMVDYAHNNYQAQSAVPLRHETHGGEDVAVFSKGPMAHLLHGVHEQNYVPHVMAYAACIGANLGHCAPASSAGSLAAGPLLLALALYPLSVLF
# cells [14] = assay: cells
# [15] = molecular target: T2, Long-chain-fatty-acid--AMP ligase FadD28 (Mycobacterium tuberculosis, UniProt P9WQ59); assay: Fluorescence polarization aasay to screen for inhibitors that compete for the binding of FadD28 to a bisubstrate Measured in Biochemical System Using Plate Reader - 2147-01_Inhibitor_Dose_CherryPick_Activity.; format: functional, Mycobacterium tuberculosis H37Rv
# T2 sequence (P9WQ59 whole entry): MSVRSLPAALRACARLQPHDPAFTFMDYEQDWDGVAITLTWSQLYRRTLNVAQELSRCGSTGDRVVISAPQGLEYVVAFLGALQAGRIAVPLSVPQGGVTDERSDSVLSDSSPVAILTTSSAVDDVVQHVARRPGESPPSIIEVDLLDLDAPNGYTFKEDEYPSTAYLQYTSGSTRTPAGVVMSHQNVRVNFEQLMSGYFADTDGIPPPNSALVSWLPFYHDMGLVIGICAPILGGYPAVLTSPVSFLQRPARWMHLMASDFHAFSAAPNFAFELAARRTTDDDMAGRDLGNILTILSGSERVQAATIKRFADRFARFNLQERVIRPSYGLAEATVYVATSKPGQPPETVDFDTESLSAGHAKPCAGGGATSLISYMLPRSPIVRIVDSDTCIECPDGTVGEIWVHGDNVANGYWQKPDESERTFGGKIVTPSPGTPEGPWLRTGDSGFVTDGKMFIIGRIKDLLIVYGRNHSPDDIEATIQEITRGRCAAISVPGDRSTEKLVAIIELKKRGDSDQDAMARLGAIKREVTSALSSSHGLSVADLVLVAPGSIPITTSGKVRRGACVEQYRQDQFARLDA
# [16] = molecular target: T3, RNA-binding protein pos-1 (Caenorhabditis elegans, UniProt G5EF15); assay: disruptors of C. elegans POS-1 RNA interaction – biochemical, fluorescence polarization, dose response (AID 1964);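 also: purified POS-1 fused to maltose binding protein made in E. coli; potency of compounds blocking POS-1 binding to fluorescent RNA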
# T3 sequence (G5EF15 whole entry): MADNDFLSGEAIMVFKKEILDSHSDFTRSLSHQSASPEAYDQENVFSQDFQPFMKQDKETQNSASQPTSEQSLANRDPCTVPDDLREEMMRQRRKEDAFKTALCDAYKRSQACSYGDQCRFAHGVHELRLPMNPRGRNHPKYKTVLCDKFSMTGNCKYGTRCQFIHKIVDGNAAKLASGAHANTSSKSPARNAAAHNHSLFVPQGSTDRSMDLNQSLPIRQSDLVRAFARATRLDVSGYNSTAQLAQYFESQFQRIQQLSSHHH
# [17] = molecular target: Neurotensin receptor type 1 (Homo sapiens, UniProt P30989); format: functional;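 also: Image-based confirmatory dose-response assay measuring agonist activity at NTR1; NTR1-expressing U2OS osteosarcoma cells imaged for beta-arrestin GFP spot formation; agonist potency where compounds increase beta-arrestin recruitment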
# Neurotensin receptor type 1, sequence (P30989 whole entry): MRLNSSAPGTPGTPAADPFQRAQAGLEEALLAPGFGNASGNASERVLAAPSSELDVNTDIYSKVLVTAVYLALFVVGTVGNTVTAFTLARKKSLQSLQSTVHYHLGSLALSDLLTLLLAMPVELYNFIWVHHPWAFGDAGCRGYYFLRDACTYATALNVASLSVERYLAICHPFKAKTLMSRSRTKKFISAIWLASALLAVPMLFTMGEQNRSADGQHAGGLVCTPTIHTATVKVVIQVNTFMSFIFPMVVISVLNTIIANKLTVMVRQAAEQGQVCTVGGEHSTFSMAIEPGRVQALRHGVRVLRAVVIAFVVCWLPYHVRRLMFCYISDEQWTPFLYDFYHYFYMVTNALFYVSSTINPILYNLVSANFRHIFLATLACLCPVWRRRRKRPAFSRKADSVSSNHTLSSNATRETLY
compound,measurement,setting,value
CC(=O)O[C@@]12CO[C@@H]1C[C@H](O)[C@@]1(C)C(=O)[C@H](O)C3=C(C)[C@@H](OC(=O)[C@H](O)[C@@H](NC(=O)c4ccccc4)c4ccccc4)C[C@@](O)([C@@H](OC(=O)c4ccccc4)C12)C3(C)C (stereo partly drawn),EC50,[1],6.71 µM (active)
same,EC50,[2],1.16 µM (active)
same,EC50,[3],1.21 µM (active)
same,EC50,[4],< 0.1 µM (active)
same,EC50,[5],> 120 µM (not active)
same,EC50,cells [6],1.78 µM (active)
same,EC50,[7],9.95 µM (active)
same,EC50,[8],0.132 µM (active)
same,IC50,[9],> 80 µM (inactive)
CCCCN(C)C(=O)CCCCn1c(=O)[nH]c2cc(OCC)c(OCC)cc2c1=O,EC50,[10],> 10 µM (not active)
O=C(CSc1ccc(-c2ccco2)nn1)NCCc1ccccc1,IC50,[11],> 100 µM (inactive)
same,IC50,[12],95.2 µM (active)
CC1Cc2ccccc2N1C(=O)COc1nc2ccccc2nc1N1CCOCC1 (stereo not drawn),EC50,[13],> 100 µM (not active)
CCN(CC)c1nc2cc(OC)ccc2cc1C#N,EC50,[10],> 10 µM (not active)
O=C(O)c1cc(-c2ccc(/C=C3\NC(=O)N(c4ccc(Cl)cc4)C3=O)o2)ccc1Cl,IC50,cells [14],23.2 µM (active)
same,AC50,[15],19.5 µM (active)
same,EC50,[16],39.7 µM (active)
COC(=O)c1ccc2c(=O)n(CCCCCC(=O)N3CCN(c4ccccc4)CC3)c(=O)[nH]c2c1,EC50,[17],17.6 µM (active)
